In paper PMC6070671, “Enhancement of Tumor Cell Death by Combining gef Gene Mediated Therapy and New 1,4-Benzoxazepin-2,6-Dichloropurine Derivatives in Breast Cancer Cells” (Frontiers in Pharmacology, 2018):
Several values for one entry are separate records, joined by “and”; a condition that tells them apart may be missing. Identical values can stand only once.

What was measured:
MCF-7TG cell line [1] = experiment: Flow cytometric analysis of the cell cycle, MCF-7TG; assay type: cell-based, human; details: 72 h, IC50 of compound
Method: (§1) Cells were grown at 70% confluence and treated with either DMSO alone or with different concentrations of the compounds corresponding to their IC50 values. Flow cytometry analysis was carried out after 72 h of treatment as described ([Marchal et al., 2004]). The results were representative of three independent experiments.

MCF-7 cells = experiment: In vitro cell proliferation assay over 15 days, MCF-7; assay type: cell-based, human; details: MCF-7, 15 days of treatment
Method: (§2) MCF-7, MCF-7TG, and MCF-7pMAMneo cells were seeded at a density of 25 × 10^3/well into six-well plates using the culture conditions above mentioned. After 24 h, fresh medium was added to the cells and treated with IC50 and 2^∗IC50 of drugs cited in Table 1. No treatment was added to the control groups. To ensure the expression of the gef gene, MCF-7TG cells medium was always treated with 1 μM Dex. Cells in culture were always treated with or without drugs every 3 days when medium was changed up to the end of the assay. Four plates were used to run each treatment and time point (0, 3, 6, 9, 12, and 15 days of treatment). After the end of the treatment, we used sulforhodamine-B to stain the cells as previously described.

MCF-7TG cancer cell line = experiment: Sulforhodamine-B cytotoxicity assay, MCF-7TG (gef-expressing); assay type: cell-based; details: Homo sapiens, 144 h; 6 days of treatment, gef gene induced with 1 μM Dex
Description: (§3) The breast cancer cell line MCF-7 was kindly provided by Dr. N. Olea of the Sánchez Mora Tumoural Biology Institute (University Hospital of Granada). The MCF-7TG cell line, a gef-expressing breast cancer cell line controlled by a mouse mammary tumor virus promoter and inducible by dexamethasone (Dex) was derivates from MCF-7 cells following methodology previously described by us ([Boulaiz et al., 2003b]). A selected MCF-7pMAMneo empty vector positive clone was also used. Non-tumoral breast cell line MCF-10A (ATCC: CRL-10317) was provided by the Cell Bank of the University of Granada (Granada, Spain). MCF-7 cells were cultured in a humidified atmosphere at 37°C with 5% CO2 and Dulbecco’s modified Eagle Medium (DMEM) (Gibco, Grand Island, NY, United States) with 10% heat-inactivated fetal bovine serum (FBS) (Gibco), 2.7% sodium bicarbonate, 2% L-glutamine, 1% Hepes buffer, 500 mg/L ampicillin and 40 mg/L gentamicin. MCF-7TG cells were grown in the same medium described above supplemented by 200 μg/ml geneticin G418 and 1μM Dex to induce gef gene expression. MCF-10A grown in DMEM/F12 medium with 5% horse serum (HS), 0.02 μg/ml epithelial growth factor (EGF), 0.5 μg/ml hydrocortisone, 100 ng/ml cholera toxin and 0.01 μg/ml insulin.
(§4) To assess the effect of the different drugs on cell viability we used the sulforhodamine-B colorimetric assay. Cells were resuspended and seeded at a density of 5 × 10^3 cells/well onto 12-well plates kept growing for 24 h. After that, the compounds were added at different concentrations to the cells (0.5, 0.7, 1, 2, 5, and 10 μM) (Figure 1). After 72 h treatment, the medium was discarded and fresh medium and treatment was added. Cells were maintained for 3 days more with the treatment. Finally, they were processed as previously described ([Boulaiz et al., 2003b]) using a Titertek Multiscan apparatus (Flow Laboratories, Irvine, United Kingdom) at 492 nm. We used the cell number for each cell stock before each cell growth experiment to set the linearity of the sulforhodamine-B assay. To calculate the IC50 values we used semilogarithmic dose–response curves to make a linear interpolation. All of the experiments were performed in triplicate wells for each treatment and were repeated at least twice.

MCF-7TG cells = experiment: In vitro cell proliferation assay over 15 days, MCF-7TG; assay type: cell-based, human; details: for growth inhibition: MCF-7TG (gef expressed), 15 days of treatment; for type of synergistic effect with the gef gene: combined with gef gene, proliferation over 15 days
Method: as §2

MCF-7TG cell line [2] = experiment: Annexin V-FITC/PI apoptosis flow cytometry, MCF-7TG; assay type: cell-based, human; details: 72 h, IC50 of compound, control 0.74 ± 0.05%
Description: (§5) Apoptosis was detected using the apoptosis detection kit for annexin V-FITC (Pharmingen, San Diego, CA, United States) by flow cytometry according to [Boulaiz et al. (2003a)]. […] The results were representative of three independent experiments.

MCF-7 cell line [3] = experiment: Annexin V-FITC/PI apoptosis flow cytometry, MCF-7; assay type: cell-based, human; details: MCF-7, 72 h, IC50 of compound; control 8.15 ± 0.40%
Description: as §5

MCF-7 cell line [4] = experiment: Flow cytometric analysis of the cell cycle, MCF-7; assay type: cell-based, human; details: MCF-7, 72 h, IC50 of compound; for S phase cells: control 17.41 ± 0.81%; for G2/M phase cells: control 17.56 ± 0.87%
Method: as §1

[5] = test system: epithelial MCF-10A cell line; experiment: Sulforhodamine-B cytotoxicity assay, MCF-10A; assay type: cell-based; details: Homo sapiens, non-tumoral breast cell line
Description: as §3, §4

MCF-7 cancer cell line = experiment: Sulforhodamine-B cytotoxicity assay, MCF-7; assay type: cell-based; details: Homo sapiens, MCF7, 144 h, 6 days of treatment
Method: as §4

SMILES | G0/G1 phase cells (MCF-7TG cell line [1]) | growth inhibition (MCF-7 cells; 2*IC50 of compound) | growth inhibition (MCF-7 cells; IC50 of compound) | IC50 (MCF-7TG cancer cell line) | growth inhibition (MCF-7TG cells; IC50 of compound) | type of synergistic effect with the gef gene (MCF-7TG cells) | necrotic cells (MCF-7TG cell line [2]) | cells in early apoptosis (MCF-7 cell line [3]) | S phase cells (MCF-7 cell line [4]) | G2/M phase cells (MCF-7 cell line [4]) | IC50 [5] | IC50 (MCF-7 cancer cell line) | growth inhibition (MCF-7TG cells; 2*IC50 of compound)
O=[N+]([O-])c1ccc(S(=O)(=O)N2CC(n3cnc4c(Cl)nc(Cl)nc43)OCc3ccccc32)cc1 (racemic) [Bozepinib, (R,S)-2,6-dichloro-9-[1-(p-nitrobenzenesulfonyl)-1,2,3,5-tetrahydro-4,1-benzoxazepine-3-yl]-9H-purine] | 85.98 ± 4.29% | 89.42% | 76% | 0.56 ± 0.01 µM | 81.42% | enhanced synergetic effect | 47.03 ± 1.07% | 40.41 ± 2.02% | 12.29 ± 0.90% | 22.98 ± 1.14% | 6.33 ± 0.03 µM | 1.23 ± 0.05 µM | 
COC(CN(c1ccccc1CO)S(=O)(=O)c1ccc([N+](=O)[O-])cc1)n1cnc2c(Cl)nc(Cl)nc21 (stereo not drawn) [ACG-812c-F1] |  |  |  | 8.75 ± 0.18 µM |  |  |  |  |  |  | 17.48 ± 0.12 µM | 9.43 ± 0.07 µM | 
O=[N+]([O-])c1ccccc1S(=O)(=O)N1CC(n2cnc3c(Cl)nc(Cl)nc32)OCc2ccccc21 (stereo not drawn) [FC-26c] | 81.25 ± 4.05% |  | 61.6% | 0.65 ± 0.03 µM |  | enhanced synergetic effect | 54.38 ± 2.3% | 37.63 ± 1.88% |  |  | 9.187 ± 0.08 µM | 2.6 ± 0.1 µM | 
Nc1ccccc1S(=O)(=O)N1CC(n2cnc3c(Cl)nc(Cl)nc32)OCc2ccccc21 (stereo not drawn) [FC-29b] | 80.07 ± 4.01% | 70.48% and 70% | 61.91% | 1.9 ± 0.02 µM | 60% | additive synergetic effect | 51.92 ± 2.09% | 57.62 ± 2.88% | 9.47 ± 0.30% | 26.12 ± 1.20% | 4.04 ± 0.09 µM | 5.02 ± 0.12 µM | 70.48% and 70%
O=S(=O)(c1ccccc1NO)N1CC(n2cnc3c(Cl)nc(Cl)nc32)OCc2ccccc21 (stereo not drawn) [FC-29d] |  |  |  | 6.7 ± 0.01 µM |  |  |  |  |  |  | 47.12 ± 0.05 µM | 8.98 ± 0.3 µM | 
O=[N+]([O-])c1ccccc1S(=O)(=O)N1CC(n2cnc3nc(Cl)nc(Cl)c32)OCc2ccccc21 (stereo not drawn) [FC-30b2] | 72.96 ± 3.50% | 96% | 82% | 1.8 ± 0.08 µM | 81.14% | enhanced synergetic effect | 65.09 ± 2.47% | 73.27 ± 3.66% | 0.63 ± 0.01% | 33.22 ± 1.66% | 9.9 ± 0.08 µM | 7.75 ± 0.06 µM | 
